Assay results: patent publication US20090221522A1, “METHODS TO CORRECT GENE SET EXPRESSION PROFILES TO DRUG SENSITIVITY” (The Johns Hopkins University, priority 2008, published 2009)

Tested on: direct pancreatic cancer xenografts (fine needle aspiration cells)
Assay: Ex vivo perturbability assay, low-density microarray RT-PCR
Format: cell-based
Parameters: key to RRM1 gene expression / NFKB1 gene expression / BNIP3L gene expression / VHL gene expression / DCK gene expression / HIF1B gene expression / IGF1R gene expression / MAPK1 gene expression / MAP2K2 gene expression / JUN gene expression / IHH gene expression: % of untreated control (treated sample normalized to untreated)
Settings: treated normalized to untreated control
Source text: Direct pancreatic cancer derived xenografts: Resected pancreatic adenocarcinomas are routinely implanted in nude mice at the Johns Hopkins Medical Institutions as a method to obtain enriched populations of neoplastic cells under an IRB-approved protocol from residual pancreatic cancer tumors. Tumor specimens from Whipple resection specimens were divided into 2-3 mm^3 pieces in antibiotic-containing RPMI media. Pieces of non-necrotic tissue were selected and immersed in Matrigel. Under anesthesia with isofluorane, tumors were implanted into five-to-six week-old female athymic (nu/nu) mice purchased from Harlan (Harlan Laboratories, Washington, D.C.). This research protocol was approved by the Johns Hopkins University Animal Use and Care Committee arid animals were maintained in accordance to guidelines of the American Association of Laboratory Animal Care. Tumors were propagated to subsequent cohorts of mice until a sufficient number were available for drug testing.
Fine needle aspiration (FNA): FNAs on mice were performed according to standard cytopathologic practice using 10 cc syringes and 25-gauge needles. The procedure was performed under inhaled general anesthesia with isofluorane. During each FNA procedure the first pass was smeared onto glass slides and used for morphologic analysis and quality control, (DiffQuik™ and Papanicoloau), and the second through sixth passes were used to acquire viable cells.
Ex vivo assay: FNA passes used to acquire viable cells were immediately transferred into 10 ml sterile prewarmed complete RPMI-1640 culture medium containing 10% FBS, penicillin (200 ug/ml), and streptomycin (200 ug/ml). Equivalent aliquots of cells were seeded in two wells of a 6-well polypropylene microplate. […] Following treatment, non-adherent and adherent cells (collected by scraping) were pooled together in a 1.5 mL microcentrifuge tube and centrifuged at 500 g for 5 mm at 4° C. After washing with PBS, cells were lysed in 100 μL of ice-cold RLT.
RNA extraction and cDNA generation: Total RNA was extracted from cells using the RNeasy™ Mini Kit (Qiagen, Valencia, Calif.) following the manufacturer's instructions. cDNA was synthesized using iScript cDNA synthesis kit (Bio-Rad) following the manufacturer's instructions.
Low-density micro arrays (LDMA): The samples were run in a customized assay with a 384-well format (ABI, Foster City, Calif.), where the expression of 45 to 381 relevant genes can be quantitatively tested. For this example, the array was designed with 8 replicated sections containing 48 wells, with primers of one gene per well: 3 housekeeping genes (HK: UBC, HPRT, SDHA), and 45 genes of interest. 50 μL of cDNA plus 50 μL of ABI mastermix were loaded onto each of two contiguous lanes to have duplicated readouts of every sample, and were run by real-time reverse transcriptase PCR (RT-PCR). The amount of change in the target genes was calculated by comparing the threshold cycle (CT) of each gene to the geometric mean of the CTs of the HK genes. Relative expression of the target genes was estimated using the formula: relative expression=2−^ΔCT, where ΔCT=CT (target gene)−CT (average of the 3 HK genes). The experiment was run in duplicate and mean values are analyzed.
Data analysis: The expression level of each gene in the treated sample was normalized to that of the untreated control. A significant change was defined when the gene expression either increases two-fold or more (>200%), or decreases to half or more (<50%). The rest is considered uninformative.

Nc1ccn([C@@H]2O[C@H](CO)[C@@H](O)C2(F)F)c(=O)n1 [gemcitabine]
AXIN2 gene expression (case #6): 517 | BAX gene expression (case #6): 110 | BNIP3L gene expression (case #6): 105 | BRAF gene expression (case #6): 88 | BRCA1 gene expression (case #6): 195 | CCND1 gene expression (case #6): 85 | CXCR4 gene expression (case #6): 0 | CyclinB1 gene expression (case #6): 84 | DCK gene expression (case #6): 91 | EGFR gene expression (case #6): 74 | ERCC1 gene expression (case #6): 150 | FOS gene expression (case #6): 106 | GADD45A gene expression (case #6): 75 | GLI2 gene expression (case #6): 85 | HIF1A gene expression (case #6): 102 | HIF1B gene expression (case #6): 65 | IGF1R gene expression (case #6): 82 | IGFBP3 gene expression (case #6): 34 | IHH gene expression (case #6): 122 | MAP2K2 gene expression (case #6): 98 | MAPK1 gene expression (case #6): 90 | MAPK3 gene expression (case #6): 75 | MDM2 gene expression (case #6): 81 | MSLN gene expression (case #6): 101 | NFKB1 gene expression (case #6): 83 | NOTCH1 gene expression (case #6): 60 | NOTCH2 gene expression (case #6): 79 | PLK1 gene expression (case #6): 31 | PSCA gene expression (case #6): 132 | PTCH gene expression (case #6): 153 | SHH gene expression (case #6): 116 | Survivin gene expression (case #6): 145 | TGFA gene expression (case #6): 101 | VEGF gene expression (case #6): 91 | VHL gene expression (case #6): 111 | p21 gene expression (case #6): 122 | AXIN2 gene expression (case #7): 41 | BAX gene expression (case #7): 100 | BNIP3L gene expression (case #7): 100 | BRAF gene expression (case #7): 40 | BRCA1 gene expression (case #7): 89 | CCND1 gene expression (case #7): 127 | CXCR4 gene expression (case #7): 5 | CyclinB1 gene expression (case #7): 16 | DCK gene expression (case #7): 102 | EGFR gene expression (case #7): 151 | ERCC1 gene expression (case #7): 153 | FOS gene expression (case #7): 139 | GADD45A gene expression (case #7): 96 | GLI2 gene expression (case #7): 73 | HIF1A gene expression (case #7): 115 | HIF1B gene expression (case #7): 102 | IGF1R gene expression (case #7): 28 | IGFBP3 gene expression (case #7): 78 | IHH gene expression (case #7): 81 | JUN gene expression (case #7): 80 | MAP2K2 gene expression (case #7): 131 | MAPK1 gene expression (case #7): 93 | MAPK3 gene expression (case #7): 167 | MDM2 gene expression (case #7): 180 | MSLN gene expression (case #7): 117 | NOTCH1 gene expression (case #7): 104 | NOTCH2 gene expression (case #7): 112 | PLK1 gene expression (case #7): 98 | PSCA gene expression (case #7): 91 | PTCH gene expression (case #7): 63 | RRM1 gene expression (case #7): 129 | SHH gene expression (case #7): 57 | Survivin gene expression (case #7): 85 | TGFA gene expression (case #7): 131 | VEGF gene expression (case #7): 115 | VHL gene expression (case #7): 80 | p21 gene expression (case #7): 134 | AXIN2 gene expression (case #8): 81 | BAX gene expression (case #8): 91 | BNIP3L gene expression (case #8): 106 | BRAF gene expression (case #8): 122 | BRCA1 gene expression (case #8): 59 | CCND1 gene expression (case #8): 107 | CXCR4 gene expression (case #8): 342 | CyclinB1 gene expression (case #8): 140 | DCK gene expression (case #8): 99 | EGFR gene expression (case #8): 91 | ERCC1 gene expression (case #8): 98 | FOS gene expression (case #8): 113 | GADD45A gene expression (case #8): 147 | GLI2 gene expression (case #8): 531 | HIF1A gene expression (case #8): 113 | HIF1B gene expression (case #8): 566 | IGF1R gene expression (case #8): 101 | IGFBP3 gene expression (case #8): 83 | IHH gene expression (case #8): 137 | MAP2K2 gene expression (case #8): 86 | MAPK1 gene expression (case #8): 78 | MAPK3 gene expression (case #8): 90 | MDM2 gene expression (case #8): 65 | MSLN gene expression (case #8): 98 | NOTCH1 gene expression (case #8): 118 | NOTCH2 gene expression (case #8): 122 | PLK1 gene expression (case #8): 90 | PSCA gene expression (case #8): 101 | PTCH gene expression (case #8): 203 | RRM1 gene expression (case #8): 104 | SHH gene expression (case #8): 77 | Survivin gene expression (case #8): 74 | TGFA gene expression (case #8): 107 | VEGF gene expression (case #8): 105 | VHL gene expression (case #8): 101 | p21 gene expression (case #8): 100 | AXIN2 gene expression (case #9): 106 | BAX gene expression (case #9): 92 | BNIP3L gene expression (case #9): 95 | BRAF gene expression (case #9): 93 | BRCA1 gene expression (case #9): 161 | CCND1 gene expression (case #9): 97 | CXCR4 gene expression (case #9): 649 | CyclinB1 gene expression (case #9): 115 | DCK gene expression (case #9): 117 | EGFR gene expression (case #9): 85 | ERCC1 gene expression (case #9): 91 | FOS gene expression (case #9): 83 | GADD45A gene expression (case #9): 74 | GLI2 gene expression (case #9): 99 | HIF1A gene expression (case #9): 100 | HIF1B gene expression (case #9): 107 | IGF1R gene expression (case #9): 53 | IGFBP3 gene expression (case #9): 42 | IHH gene expression (case #9): 99 | JUN gene expression (case #9): 92 | MAP2K2 gene expression (case #9): 90 | MAPK1 gene expression (case #9): 99 | MAPK3 gene expression (case #9): 106 | MDM2 gene expression (case #9): 92 | MSLN gene expression (case #9): 107 | NOTCH1 gene expression (case #9): 96 | NOTCH2 gene expression (case #9): 101 | PLK1 gene expression (case #9): 111 | PSCA gene expression (case #9): 94 | PTCH gene expression (case #9): 78 | RRM1 gene expression (case #9): 73 | SHH gene expression (case #9): 47 | Survivin gene expression (case #9): 104 | TGFA gene expression (case #9): 103 | VEGF gene expression (case #9): 87 | VHL gene expression (case #9): 110 | p21 gene expression (case #9): 83 | AXIN2 gene expression (case #10): 202 | BAX gene expression (case #10): 91 | BNIP3L gene expression (case #10): 97 | BRAF gene expression (case #10): 65 | BRCA1 gene expression (case #10): 62 | CCND1 gene expression (case #10): 69 | CXCR4 gene expression (case #10): 53 | CyclinB1 gene expression (case #10): 89 | DCK gene expression (case #10): 91 | EGFR gene expression (case #10): 50 | ERCC1 gene expression (case #10): 91 | FOS gene expression (case #10): 96 | GADD45A gene expression (case #10): 106 | GLI2 gene expression (case #10): 30 | HIF1A gene expression (case #10): 90 | HIF1B gene expression (case #10): 76 | IGF1R gene expression (case #10): 66 | IGFBP3 gene expression (case #10): 96 | IHH gene expression (case #10): 93 | JUN gene expression (case #10): 82 | MAP2K2 gene expression (case #10): 89 | MAPK1 gene expression (case #10): 79 | MAPK3 gene expression (case #10): 73 | MDM2 gene expression (case #10): 86 | MSLN gene expression (case #10): 90 | NFKB1 gene expression (case #10): 78 | NOTCH1 gene expression (case #10): 70 | NOTCH2 gene expression (case #10): 101 | PLK1 gene expression (case #10): 68 | PSCA gene expression (case #10): 108 | PTCH gene expression (case #10): 33 | RRM1 gene expression (case #10): 92 | SHH gene expression (case #10): 70 | Survivin gene expression (case #10): 64 | TGFA gene expression (case #10): 141 | VEGF gene expression (case #10): 97 | VHL gene expression (case #10): 74 | p21 gene expression (case #10): 119
